US10858321B2, “Composition for inducing cell reprogramming” (GWANGJU INSTITUTE OF SCIENCE AND TECHNOLOGY, priority 2014, dated 2020)
pIC50: −log10 of the molar value.

Tests used:
[1] = test system: C2C12 myoblasts; test: MTT assay (cytotoxicity); format: cell-based, mouse; conditions: for cytotoxicity: result in words, comparison with the indazole derivatives; for pIC50: C2C12 myoblasts, incubated 2 days with compound
Method: C2C12 myoblasts were seeded in a 96-well plate at a density of 3×10^3 cells per well. The cells were cultured for one day, and then treated with each compound. Next, the cells were incubated for 2 days, and then treated with a serum-free medium containing 3-(4,5-dimethylthiazol-2-yl)-2,5-diphenyltetrazolium bromide (MTT) for 3 hours. After removal of the medium, the cells were incubated in DMSO for 10 minutes while they were shaken. The absorbance at 570 nm was measured by a microreader (VersaMax, Molecular Devices) (see FIG. 4).

[2] = test system: C2C12 mouse skeletal myoblasts; test: Cell screening by Alizarin red staining (direct reprogramming of myoblasts into osteoblasts); format: cell-based; design: key to Alizarin red staining (osteoblasts): ++ (strong positive); + (weak positive); − (negative); conditions: for reprogramming potential in differentiation into osteoblasts: Alizarin red staining, result in words; for Alizarin red staining (osteoblasts): C2C12 myoblasts treated 72 hours with compound, then osteogenic differentiation inducing medium 14 days, reversine 100 nM
Method: A method for identifying compounds that induce cell reprogramming was based on a previous study (PMID: 23044010 and 18974773) on the myocyte-to-osteocyte conversion by bone formation induction and a previous reversine publication (Chen S 2004).
C2C12 mouse skeletal myoblasts were seeded in a 24-well cell culture dish at a density of 1×10^4 cells per well. 24 Hours after seeding, the compound of interest was added to three well at a concentration of […]. For a positive control, the cells were treated with 100 nM reversine or 2 μM BIO. The two compounds are known to induce the conversion of myoblasts to […] (Chen S 2004 and Kim WH recapitulate papers). For a negative control, the cells were untreated or treated with DMSO. The cells were treated with each compound for a total of 72 hours, and were further treated with each compound after 48 hours. The cytotoxicity of each compound could be confirmed from disappearance of a portion of the cells and from floating cell debris during culture, and a compound causing cytotoxicity was screened again at a concentration of 250 nM. After 72 hours, the medium was replaced with an osteogenic differentiation inducing medium (treated for 14 days with a DMEM supplemented with 10% FBS, […] ascorbic acid-2-phosphate, 0.1 μM dexamethasone, 10 mM β-glycerophosphate, 50 units/mL of penicillin, and […] streptomycin). The osteogenic differentiation inducing medium was based on one previously described in direct cell reprogramming (reversine papers, Chen S 2004 and Chen S 200/). Direct cell reprogramming from myocytes to osteocytes was analyzed by Alizarin red staining that detects calcium deposits (Gregory CA 2004 PMID: 15136169) in bone lineage cells.
Cells were washed once with PBS, and then fixed with phosphate-buffered formalin for 20 minutes. The fixed cells were washed with distilled water, and immersed in a solution of 1% Alizarin red-S in water for 5 minutes. The remaining dye was washed out with distilled water. The cells were dried, and then imaged with an optical microscope (CKX41 Olympus). The stained cells did look red, and a compound corresponding to such cells was selected as a ‘hit’ compound and further analyzed.

[3] = target: T1, GSK-3β (Homo sapiens, UniProt P49841); test: HTRF kinase assay, GSK-3β; format: biochemical; conditions: 1 μM compound
T1 construct: purchased Millipore (Billerica, Mass.)
T1 sequence (P49841 whole entry, species assumed): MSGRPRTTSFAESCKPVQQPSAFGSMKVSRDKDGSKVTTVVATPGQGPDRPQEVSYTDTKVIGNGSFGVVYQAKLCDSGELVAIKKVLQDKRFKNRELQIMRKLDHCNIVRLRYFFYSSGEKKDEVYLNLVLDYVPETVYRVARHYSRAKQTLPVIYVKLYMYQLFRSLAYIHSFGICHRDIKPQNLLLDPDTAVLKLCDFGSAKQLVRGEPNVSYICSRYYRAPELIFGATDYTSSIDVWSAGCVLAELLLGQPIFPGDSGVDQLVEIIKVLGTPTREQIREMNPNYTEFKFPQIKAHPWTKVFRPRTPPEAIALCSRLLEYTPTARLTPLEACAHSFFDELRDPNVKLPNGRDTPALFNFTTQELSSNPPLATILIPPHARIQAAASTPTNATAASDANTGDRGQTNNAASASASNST
Method: (§1) The inhibitory activities of indazole derivatives against GSK-3 β and Aurora A were analyzed by HTRF (homogeneous time-resolved fluorescence) assay. The HTRF assay is an assay method that detects the phosphorylation of peptide substances in the presence of ATP. Phosphorylated substances were detected by TR-FRET (Time Resolved-Fluorescence Resonance) signals. Recombinant GSK-3 β and Aurora A kinase were purchased from Millipore (Billerica, Mass.). Using a HTRF KinEASE kit (Cisbio), the assay was performed. Each of GSK-3 β and Aurora A was treated with 1 μM of each indazole compound, and the degree of inhibition of phosphorylation was analyzed. The assay was composed of a compound-enzyme mixture and peptide substance dissolved in kinase reaction buffer (250 mM HEPES (pH 7.0), 0.5 mM orthovanadate, 0.05% BSA, 0.1% NaN3). After addition of detection buffer, the TR-FRET signal was detected by an EnVision multi-label reader.

[4] = target: T2, Aurora A (Homo sapiens, UniProt O14965); test: HTRF kinase assay, Aurora A; format: biochemical; conditions: 1 μM compound
T2 construct: purchased Millipore (Billerica, Mass.)
T2 sequence (O14965 1-403): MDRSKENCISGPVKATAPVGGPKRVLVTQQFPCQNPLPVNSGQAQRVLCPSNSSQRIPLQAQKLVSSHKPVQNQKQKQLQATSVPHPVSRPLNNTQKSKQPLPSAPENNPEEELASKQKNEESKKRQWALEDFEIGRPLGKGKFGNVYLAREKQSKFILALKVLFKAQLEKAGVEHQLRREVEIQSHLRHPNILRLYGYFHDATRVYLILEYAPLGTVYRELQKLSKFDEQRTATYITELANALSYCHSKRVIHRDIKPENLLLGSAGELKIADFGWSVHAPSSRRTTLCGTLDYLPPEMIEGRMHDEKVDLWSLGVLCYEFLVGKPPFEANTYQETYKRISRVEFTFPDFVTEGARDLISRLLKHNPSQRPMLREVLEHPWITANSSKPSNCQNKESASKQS
Method: as §1

[5] = test system: adipocytes; test: Oil red O staining (differentiation into adipocytes); format: cell-based; design: key to Oil red O staining (adipocytes): ++ (strong positive); + (weak positive); − (negative); conditions: for reprogramming potential in differentiation into adipocytes: oil red O staining, result in words

Structure (SMILES): O=C1Nc2cc(Br)ccc2/C1=C1/Nc2ccccc2/C1=N\O [BIO, reference compound]
- cytotoxicity [1]: high cytotoxicity

Structure (SMILES): O=C(Nc1n[nH]c2ccc([N+](=O)[O-])cc12)c1ccccc1 [LDD-1664, N-(5-nitro-1(2)H-indazol-3-yl)-benzamide]
- reprogramming potential in differentiation into osteoblasts [2]: strong reprogramming potential
- Alizarin red staining (osteoblasts) [2]: ++
- % Inhibition at 1 μM concentration, GSK-3β [3]: 6.5%
- % Inhibition at 1 μM concentration, Aurora-A [4]: 0%

Structure (SMILES): O=[N+]([O-])c1ccc2[nH]nc(NS(=O)(=O)c3ccccc3)c2c1 [LDD-1667, N-(5-nitro-111-indazol-3-yl)benzenesulfonamide]
- Alizarin red staining (osteoblasts) [2]: −
- % Inhibition at 1 μM concentration, GSK-3β [3]: 0%
- % Inhibition at 1 μM concentration, Aurora-A [4]: 0%

Structure (SMILES): O=C(Nc1n[nH]c2ccc(C(=O)N3CCCCC3)cc12)c1ccccc1 [LDD-1820, N-(5-(piperidine-1-carbonyl)-1H-indazol-3-yl)benzamide]
- Alizarin red staining (osteoblasts) [2]: −
- inhibition at 1 µM ([3]; read-out: % Inhibition at 1 μM concentration, GSK-3β): 0.5%
- inhibition at 1 µM ([4]; read-out: % Inhibition at 1 μM concentration, Aurora-A): 32.5%

Structure (SMILES): O=C(c1ccc2[nH]nc(C(=NO)Nc3ccccc3)c2c1)N1CCCCC1 [LDD-1821, N′-hydroxy-N-phenyl-5-(piperidine-1-carbonyl)-1H-indazole-3-carboxamide]
- reprogramming potential in differentiation into osteoblasts [2]: strong reprogramming potential
- Alizarin red staining (osteoblasts) [2]: ++
- Oil red O staining (adipocytes) [5]: ++
- reprogramming potential in differentiation into adipocytes [5]: strong reprogramming potential
- pIC50 [1]: < 5.00
- % Inhibition at 1 μM concentration, GSK-3β ([3]; 1 µM): no inhibitory activity
- % Inhibition at 1 μM concentration, GSK-3β ([3]; listed as LDD1821, 1 µM): 0.2%
- % Inhibition at 1 μM concentration, Aurora-A ([4]; 1 µM): no inhibitory activity
- % Inhibition at 1 μM concentration, Aurora-A ([4]; listed as LDD1821, 1 µM): 0%

Structure (SMILES): O=C(c1ccc2[nH]nc(NC(=NO)c3ccccc3)c2c1)N1CCCCC1 [LDD-1945, N′-hydoxy-N-(5-(piperidine-1-carbonyl)-111-indazol-3-yl)benzimidamide]
- reprogramming potential in differentiation into osteoblasts [2]: strong reprogramming potential
- Alizarin red staining (osteoblasts) [2]: ++
- pIC50 [1]: < 5.00

Structure (SMILES): O=C(O)c1ccc2[nH]nc(C(=NO)Nc3ccccc3)c2c1 [LDD-1986, 3-(N′-hydroxy-N-phenylcarbamimidoyl)-1H-indazole-5-carboxylic Acid]
- Alizarin red staining (osteoblasts) [2]: +
- Oil red O staining (adipocytes) [5]: ++
- reprogramming potential in differentiation into adipocytes [5]: strong reprogramming potential
- pIC50 ([1]; Mus musculus, 48 h): < 5.00

Structure (SMILES): CCCN1CCN(C(=O)c2ccc3[nH]nc(C(=NO)Nc4ccccc4)c3c2)CC1 [LDD-1987, N′-hydroxy-N-phenyl-5-(4-propylpiperazine-1-carbonyl)-1H-indazole-3-carboxamide]
- Alizarin red staining (osteoblasts) [2]: +
- Oil red O staining (adipocytes) [5]: ++
- reprogramming potential in differentiation into adipocytes [5]: strong reprogramming potential
- pIC50 [1]: < 5.00

Structure (SMILES): COCCN1CCN(C(=O)c2ccc3[nH]nc(C(=NO)Nc4ccccc4)c3c2)CC1 [LDD-1988, N′-hydroxy-5-(4-(2-methoxyethyl)piperazine-1-carbonyl)-N-phenyl-1H-indazole 3-carboximidamide]
- Alizarin red staining (osteoblasts) [2]: +
- Oil red O staining (adipocytes) [5]: ++
- reprogramming potential in differentiation into adipocytes [5]: strong reprogramming potential
- pIC50 ([1]; Mus musculus, 48 h): < 5.00

Structure (SMILES): O=C(O)c1ccc2[nH]nc(NC(=NO)c3ccccc3)c2c1 [LDD-2194, 3-(N′-hydroxybenzimidamido)-1H-indazole-5-carboxylic Acid]
- pIC50 ([1]; Mus musculus, 48 h): < 5.00

Structure (SMILES): COC(=O)c1ccc2[nH]nc(NC(=NO)c3ccccc3)c2c1 [LDD-2195, Methyl-3-(N′-hydroxybenzimidamido)-1H-indazole-5-carboxylate]
- pIC50 ([1]; Mus musculus, 48 h): < 5.00

Structure (SMILES): COC(=O)c1ccc2[nH]nc(C(=NO)Nc3ccccc3)c2c1 [LDD-2196, Methyl-3-(N′-hydroxy-N-phenylcarbamimidoyl)-1H-indazole-5-carboxylate]
- pIC50 ([1]; Mus musculus, 48 h): < 5.00

Structure (SMILES): O=C(O)c1ccc2[nH]nc(C(=NO)Nc3ccc(F)cc3)c2c1 [LDD-2197, 3-N-(4-fluorophenyl)-N′-hydroxycarbamimidoyl-1H-indazole-5-carboxylic Acid]
- pIC50 [1]: < 5.00

Structure (SMILES): COc1ccc(NC(=NO)c2n[nH]c3ccc(C(=O)O)cc23)cc1 [LDD-2198, 3-(N′-hydroxy-N-(4-methoxyphenyl)carbaminidoyl)-1H-indazole-5-carboxylic Acid]
- pIC50 [1]: < 5.00

Structure (SMILES): O=C(c1ccc2[nH]nc(C(=NO)Nc3ccc(F)cc3)c2c1)N1CCCCC1 [LDD-2199, N-(4-fluorophenyl)-N′-hydroxy-5-(piperidine-1-carbonyl)-1H-indazole-3-carboxamide]
- reprogramming potential in differentiation into osteoblasts [2]: strong reprogramming potential
- Alizarin red staining (osteoblasts) [2]: ++
- pIC50 [1]: < 5.00

Structure (SMILES): COc1ccc(NC(=NO)c2n[nH]c3ccc(C(=O)N4CCCCC4)cc23)cc1 [LDD-2200, N′-hydroxy-N-(4-methoxyphenyl)-5-(piperidine-1-carbonyl)-1H-indazole-3-carboxamide]
- reprogramming potential in differentiation into osteoblasts [2]: strong reprogramming potential
- Alizarin red staining (osteoblasts) [2]: ++
- pIC50 [1]: < 5.00

Structure (SMILES): c1nc2nc(Nc3ccc(N4CCOCC4)cc3)nc(NC3CCCCC3)c2[nH]1 [Reversine, reference compound]
- reprogramming potential in differentiation into osteoblasts [2]: strong reprogramming potential
- Alizarin red staining (osteoblasts) [2]: ++
- Oil red O staining (adipocytes) [5]: ++
- cytotoxicity [1]: high cytotoxicity
